Assay results from patent publication US7217682B2, “Cyclopropanecarboxylic acid esters and pest controllers containing the same” (Sumitomo Chemical Company, Limited, priority 2001, dated 2007).

Each compound was assayed on Adult houseflies (assay: Knock-down test on adult houseflies, oil solution sprayed into a cubic chamber). Settings: 0.7 ml of 0.025% oil solution sprayed in 70 cm cubic chamber; 5 male and 5 female adult houseflies; counted for 10 minutes; average of two repeats.
Type: in vivo
From the text: A solution of 0.025 part of Present Compound 1 to 6 dissolved with 10 parts of dichloromethane was mixed with […] parts of deodorized kerosene to give a 0.025% oil solution.
Adult houseflies (5 males and 5 females) were left in a cubic chamber (70 cm at side). Seven-tenths (0.7) ml of the 0.025% oil solution of Present Compound 1 to 6 prepared above was sprayed with a spray gun at a pressure of 8.8×10^4 Pa from a small window on the side of the chamber. Then, the number of the knocked-down insects was counted at times for 10 minutes. The time for knocking down half of the tested insects (KT50) was calculated from the result.
Furthermore, the test was similarly done by using (4-methoxymethyl-2,3,5,6-tetrafluoro)phenylmethyl [1R[1α, 3β(Z)]]-2,2-dimethyl-3-(2-fluoro-3-methoxy-3-oxopropenyl)cyclopropanecarboxylate (hereinafter, referred to as Comparative Compound):
[drawing 12] described in GB patent publication 2,268,740 as a comparative compound. The tests were done twice repeat, and the KT50 values were calculated from the averages.

Compound	KT50 (time for knocking down half of the tested insects)
COCc1c(F)c(F)c(COC(=O)C2C(/C=C(\F)C(=O)OC)C2(C)C)c(F)c1F (stereo not drawn) [Comparative Compound, (4-methoxymethyl-2,3,5,6-tetrafluoro)phenylmethyl [1R[1α, 3β(Z)]]-2,2-dimethyl-3-(2-fluoro-3-methoxy-3-oxopropenyl)cyclopropanecarboxylate, reference compound]	>10 min
CCOC(=O)/C(C#N)=C/C1C(C(=O)OCc2c(F)c(F)c(COC)c(F)c2F)C1(C)C (stereo not shown) [Present Compound 1, 4-methoxymethyl-2,3,5,6-tetrafluorobenzyl 2,2-dimethyl-3-((E)-2-cyano-3-ethoxy-3-oxo-1-propenyl) cyclopropanecarboxylate]	1.5 min
COCc1c(F)c(F)c(COC(=O)C2C(/C=C(\C#N)C(=O)OC)C2(C)C)c(F)c1F (stereo not shown) [Present Compound 2, 4-methoxymethyl-2,3,5,6-tetrafluorobenzyl 2,2-dimethyl-3-((E)-2-cyano-3-methoxy-3-oxo-1-propenyl) cyclopropanecarboxylate]	1.9 min
CCCOC(=O)/C(C#N)=C/C1C(C(=O)OCc2c(F)c(F)c(COC)c(F)c2F)C1(C)C (stereo not shown) [Present Compound 3, 4-methoxymethyl-2,3,5,6-tetrafluorobenzyl 2,2-dimethyl-3-((E)-2-cyano-3-propoxy-3-oxo-1-propenyl) cyclopropanecarboxylate]	4.1 min
C=CCOC(=O)/C(C#N)=C/C1C(C(=O)OCc2c(F)c(F)c(COC)c(F)c2F)C1(C)C (stereo not shown) [Present Compound 4, 4-methoxymethyl-2,3,5,6-tetrafluorobenzyl 2,2-dimethyl-3-((E)-2-cyano-3-allyloxy-3-oxo-1-propenyl) cyclopropanecarboxylate]	4.3 min
COCc1c(F)c(F)c(COC(=O)C2C(/C=C(\C#N)C(=O)OC(C)C)C2(C)C)c(F)c1F (stereo not shown) [Present Compound 5, 4-methoxymethyl-2,3,5,6-tetrafluorobenzyl 2,2-dimethyl-3-((E)-2-cyano-3-isopropoxy-3-oxo-1-propenyl) cyclopropanecarboxylate]	1.5 min
COCc1c(F)c(F)c(COC(=O)C2C(/C=C(\C#N)C(=O)OC(C)(C)C)C2(C)C)c(F)c1F (stereo not shown) [Present Compound 6, 4-methoxymethyl-2,3,5,6-tetrafluorobenzyl 2,2-dimethyl-3-((E)-2-cyano-3-t-butyloxy-3-oxo-1-propenyl) cyclopropanecarboxylate]	3.4 min
